Assay: Pharmacokinetic study in rats after oral administration of Typhae Pollen / Typhae Pollen-Trogopterus Feces decoctions (plasma, UPLC-TQ/MS)
Type: in vivo, female Sprague–Dawley (SD) rats
Settings: n = 6, noncompartment model; for Cmax / Tmax / half-life: female, Sprague-Dawley, rat, po; for AUC0~t: rat plasma
Protocol: An ACQUITY UPLC BEH C18 column (2.1 mm × 100 mm, 1.7 μm, Waters Corp., Milford, MA, USA) was applied and the column temperature was maintained at 35 °C. The mobile phase was composed of A (0.1 % aqueous formic acid) and B (acetonitrile) using a gradient elution of 5–10 % B at 0–1 min, 10–30 % B at 1–6 min, 30–40 % B at 6–7 min, 40–95 % B at 7–8 min, 95–5 % B at 8–9 min, […] with a flow rate set at 0.4 mL/min. The auto-sampler was conditioned at 4 °C and the injection volume was 5 μL.
Mass spectrometry detection was performed by using a Xevo Triple Quadrupole MS (Waters Corp., Milford, MA) equipped with an electrospray ionization source (ESI). The ESI source was set in positive ionization mode. The scanning mode was set multiple reaction monitoring (MRM) mode. Parameters set in the source were as follows: the capillary voltage at 1 kV; sampling cone voltage of 30 V; source temperature […]; desolvation temperature 550 °C; dwell time was automatically set by MassLynx (Waters Corp., Milford, MA, USA).
A 200 μL aliquot of plasma sample was added with 10 μL diphenhydramine hydrochloride working solution and 600 μL of methanol. After vortex for 2 min and centrifugation at 13,000 rpm for 10 min, the supernatant was transferred to another 1.5 mL tube and concentrated in the centrifuge enrichment apparatus at 37 °C.
Finally, each residue was reconstituted in 200 μL 70 % methanol, then vortexed for 3 min and centrifuged at 13,000 rpm for 10 min. 5 μL of supernatant was injected into the UPLC-TQ/MS system for analysis.
All experiments were performed on female Sprague–Dawley (SD) rats, weighing 220–250 g, obtained from Shanghai Slac Laboratory Animal Co., Ltd. (Shanghai, China). They were kept in plastic cages at 22 ± 2 °C and a relative humidity of 50–65 %, with free access to pellet food and water on a 12 h light/dark cycle. Animal welfare and experimental procedures strictly conformed to the Guide for the Care and Use of Laboratory Animals and the related ethics regulations of Nanjing University of Chinese Medicine.
For pharmacokinetic studies, the SD rats were divided into four groups randomly (n = 6 per group), and housed with unlimited access to food before the experiment while water available. Each group except the control group was oral administration of TP (CN) single drug decoction, TP-TF co-decoction (CM) and TP-TF mixed decoction (CB) at a dosage of 5 g/kg, 10 g/kg, 10 g/kg body weight, respectively. Blood samples (0.5 mL) were collected at certain time points and placed at a 1.5 mL tube before oral (0 min) and after oral (5, 15, 30, 45, 60, 120, 240, 360, 480, 720 and 1440 min) administration. Afterwards all the blood samples were centrifuged at 13,000 rpm for 10 min and stored at −80 °C until analysis.
The mean plasma concentration-time profiles of typhaneoside, vanillic acid and p-coumaric acid were determined after oral administration with different compatibility of Typhae Pollen-Trogopterus Feces drug pair in rats, the concentration-time curves are presents in Fig. 3, and the noncompartment model pharmacokinetic parameters including maximum plasma concentration (Cmax), time to reach the maximum concentrations (Tmax), half-time (T1/2), area under concentration-time curve (AUC 0~t) are summarized in Table 2.

[1] = plasma, 5 g/kg, oral TP single drug decoction (CN)
[2] = plasma, 10 g/kg, oral TP-TF co-decoction (CM)
[3] = plasma, 10 g/kg, oral TP-TF mixed decoction (CB)
[4] = oral TP single drug decoction (CN), 5 g/kg
[5] = oral TP-TF co-decoction (CM), 10 g/kg
[6] = oral TP-TF mixed decoction (CB), 10 g/kg
[7] = in vivo, 5 g/kg, oral TP single drug decoction (CN)
[8] = in vivo, 10 g/kg, oral TP-TF co-decoction (CM)
[9] = in vivo, 10 g/kg, oral TP-TF mixed decoction (CB)

| Cmax [1] | Tmax [1] | half-life [1] | Cmax [2] | Tmax [2] | half-life [2] | Cmax [3] | Tmax [3] | half-life [3] | AUC0~t [4] | AUC0~t [5] | AUC0~t [6] | SMILES | further results |
| --- | --- | --- | --- | --- | --- | --- | --- | --- | --- | --- | --- | --- | --- |
| 2210 ± 1190 ng/mL | 1.25 ± 0.71 h | 221 ± 52.2 min | 3870 ± 2530 ng/mL | 1.47 ± 3.2 h | 675 ± 817 min | 1450 ± 501 ng/mL | 0.17 ± 0.09 h | 533 ± 226 min | 10445.53 ± 4148.68 ng/h/mL | 14137.57 ± 4540.37 ng/h/mL | 6193.78 ± 4499.17 ng/h/mL | COc1cc(C(=O)O)ccc1O [Vanillic acid, vanillic acid] | – |
| 4900 ± 1890 ng/mL | 1.08 ± 1.67 h | 220 ± 109 min | 5110 ± 3670 ng/mL | 1.42 ± 1.39 h | 605 ± 472 min | 4190 ± 844 ng/mL | 0.46 ± 0.4 h | 605 ± 614 min | 36881.01 ± 25783.25 ng/h/mL | 41512.56 ± 41763.28 ng/h/mL | 17689.11 ± 3882.21 ng/h/mL | O=C(O)/C=C/c1ccc(O)cc1 [P-coumaric acid, p-coumaric acid] | – |

| SMILES | Cmax [1] | Tmax [1] | half-life [1] | Cmax [2] | Tmax [2] | half-life [2] | Cmax [3] | Tmax [3] | half-life [3] | AUC0~t [4] | AUC0~t [5] | AUC0~t [6] | further results |
| --- | --- | --- | --- | --- | --- | --- | --- | --- | --- | --- | --- | --- | --- |
| COc1cc(-c2oc3cc(O)cc(O)c3c(=O)c2O[C@@H]2O[C@H](CO[C@@H]3O[C@@H](C)[C@H](O)[C@@H](O)[C@H]3O)[C@@H](O)[C@H](O)[C@H]2O[C@@H]2O[C@@H](C)[C@H](O)[C@@H](O)[C@H]2O)ccc1O [Typhaneoside, typhaneoside] | – | – | – | – | – | – | – | – | – | 268.31 ± 167.71 ng/h/mL | 333.46 ± 191.84 ng/h/mL | 275.62 ± 206.06 ng/h/mL | Cmax [7]: 76.4 ± 53.2 ng/mL; Tmax [7]: 2.95 ± 2.88 h; half-life [7]: 201 ± 155 min; Cmax [8]: 371 ± 316 ng/mL; Tmax [8]: 0.24 ± 0.15 h; half-life [8]: 115 ± 75.6 min; Cmax [9]: 214 ± 73.7 ng/mL; Tmax [9]: 0.21 ± 0.08 h; half-life [9]: 82.2 ± 32.4 min |

Source: publication PMC4719211, “Comparative Pharmacokinetics of three major bioactive components in rats after oral administration of Typhae Pollen-Trogopterus Feces drug pair before and after compatibility” (DARU Journal of Pharmaceutical Sciences, 2016)
